Key:
blackgrass [1] = assay: Test C preemergence; type: in vivo, Alopecurus myosuroides; settings: 0 to 100 scale (0 no effect, 100 complete control); for Plant response rating, Blackgrass: Preemergence, 500 g ai/ha, visual rating after 10 days; for Blackgrass plant response rating: Test C, preemergence, 125 g ai/ha
Method in brief: (§1)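 Seeds sown in loam soil–sand blend received a directed preemergence soil spray of test chemical in non-phytotoxic solvent with surfactant; postemergence plants (2–10 cm, one- to two-leaf stage) were sprayed with the same formulation. Greenhouse-held 10 days, then visually rated for injury versus untreated controls, 0 (no effect) to 100 (complete control).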

blackgrass [2] = assay: Test C postemergence; type: in vivo, Alopecurus myosuroides; settings: 10 days
Method in brief: as §1

wheat [3] = assay: Test C postemergence; type: in vivo, Triticum aestivum; settings: 10 days
Method in brief: as §1

galium = assay: Test C postemergence; type: in vivo, Galium aparine; settings: 10 days
Method in brief: as §1

wheat [4] = assay: Test C preemergence; type: in vivo, Triticum aestivum; settings: 0 to 100 scale (0 no effect, 100 complete control); for Wheat plant response rating: preemergence
Method in brief: as §1

corn [5] = assay: Test C postemergence; type: in vivo, Zea mays; settings: 10 days
Method in brief: as §1

foxtail, giant [6] = assay: Test C postemergence; type: in vivo, Setaria faberi; settings: 10 days
Method in brief: as §1

kochia [7] = assay: Test C preemergence; type: in vivo, Bassia scoparia; settings: 0 to 100 scale (0 no effect, 100 complete control); for Kochia plant response rating: preemergence
Method in brief: as §1

ryegrass, Italian [8] = assay: Test C postemergence; type: in vivo, Lolium multiflorum; settings: 10 days
Method in brief: as §1

ducksalad = assay: Test D flooded paddy test; type: in vivo, Heteranthera limosa; settings: 250 g ai/ha, applied to paddy water, visual rating after 13 to 14 days, scale 0 to 100 (0 no effect, 100 complete control)
Method in brief: (§2)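 At the 2-leaf stage, floodwater 3 cm deep received the test compound; that depth persisted throughout. Plants scored visually 13 to 14 days on, 0 (no effect) to 100 (complete control), dash indicating no result.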

rice = assay: Test D flooded paddy test; type: in vivo, Oryza sativa; settings: 250 g ai/ha, applied to paddy water, visual rating after 13 to 14 days, scale 0 to 100 (0 no effect, 100 complete control)
Method in brief: as §2

oat, wild [9] = assay: Test C preemergence; type: in vivo, Avena fatua; settings: 0 to 100 scale (0 no effect, 100 complete control); for Oat, Wild plant response rating: preemergence
Method in brief: as §1

foxtail, giant [10] = assay: Test C preemergence; type: in vivo, Setaria faberi; settings: 0 to 100 scale (0 no effect, 100 complete control); for Foxtail, Giant plant response rating: preemergence
Method in brief: as §1

corn [11] = assay: Test C preemergence; type: in vivo, Zea mays; settings: 0 to 100 scale (0 no effect, 100 complete control); for Corn plant response rating: preemergence
Method in brief: as §1

sedge, umbrella = assay: Test D flooded paddy test; type: in vivo, Cyperus difformis; settings: 250 g ai/ha, applied to paddy water, visual rating after 13 to 14 days, scale 0 to 100 (0 no effect, 100 complete control)
Method in brief: as §2

kochia [12] = assay: Test C postemergence; type: in vivo, Bassia scoparia; settings: 10 days
Method in brief: as §1

goosegrass [13] = assay: Test C postemergence; type: in vivo, Eleusine indica; settings: 10 days
Description: (§3) Seeds of plant species selected from barnyardgrass (Echinochloa crusgalli), blackgrass (Alopecurus myosuroides), corn (Zea mays), foxtail, giant (giant foxtail, Setaria faberi), green foxtail (Setaria viridis), goosegrass (Eleusine indica), kochia (Bassia scoparia), oat, wild (wild oat, Avena fatua), pigweed, palmer (palmer amaranth, palmer pigweed, Amaranthus palmeri), Pigweed, Redroot (redroot pigweed, Amaranthus retroflexus), ragweed (common ragweed, Ambrosia artemisiifolia), ryegrass, Italian ([…] ryegrass, Lolium multiflorum), soybean (Glycine max), and wheat (Triticum aestivum) were planted into a blend of loam soil and sand and treated preemergence with a directed soil spray using test chemicals formulated in a non-phytotoxic solvent mixture which included a surfactant. At the same time, plants selected from these crops and weed species and also galium (catchweed bedstraw, Galium aparine) and horseweed (Erigeron canadensis) were planted in pots containing the same blend of loam soil and sand and treated with postemergence applications of test chemicals formulated in the same manner. Plants ranged in height from 2 to 10 cm and were in the one- to two-leaf stage for the postemergence treatment. Treated plants and untreated controls were maintained in a greenhouse for 10 days, after which time all treated plants were compared to untreated controls and visually evaluated for injury. Plant response ratings, summarized in Table C, are based on a 0 to 100 scale where 0 is no effect and 100 is complete control. A dash (-) response means no test result.

pigweed, palmer [14] = assay: Test C postemergence; type: in vivo, Amaranthus palmeri; settings: 10 days
Method in brief: as §1

horseweed = assay: Test C postemergence; type: in vivo, Erigeron canadensis; settings: 10 days
Method in brief: as §1

ragweed [15] = assay: Test C preemergence; type: in vivo, Ambrosia artemisiifolia; settings: 0 to 100 scale (0 no effect, 100 complete control); for Ragweed plant response rating: preemergence
Method in brief: as §1

ragweed [16] = assay: Test C postemergence; type: in vivo, Ambrosia artemisiifolia; settings: 10 days
Method in brief: as §1

barnyardgrass = assay: Test D flooded paddy test; type: in vivo, Echinochloa crus-galli; settings: 250 g ai/ha, applied to paddy water, visual rating after 13 to 14 days, scale 0 to 100 (0 no effect, 100 complete control)
Method in brief: as §2

oat, wild [17] = assay: Test C postemergence; type: in vivo, Avena fatua; settings: 10 days
Method in brief: as §1

pigweed, palmer [18] = assay: Test C preemergence; type: in vivo, Amaranthus palmeri; settings: 0 to 100 scale (0 no effect, 100 complete control); for Pigweed, Palmer plant response rating: preemergence
Method in brief: as §1

goosegrass [19] = assay: Test C preemergence; type: in vivo, Eleusine indica; settings: 0 to 100 scale (0 no effect, 100 complete control); for Goosegrass plant response rating: preemergence
Description: as §3

ryegrass, Italian [20] = assay: Test C preemergence; type: in vivo, Lolium multiflorum; settings: 0 to 100 scale (0 no effect, 100 complete control); for Ryegrass, Italian plant response rating: preemergence
Method in brief: as §1

soybean [21] = assay: Test C postemergence; type: in vivo, Glycine max; settings: 10 days
Method in brief: as §1

soybean [22] = assay: Test C preemergence; type: in vivo, Glycine max; settings: 0 to 100 scale (0 no effect, 100 complete control); for Soybean plant response rating: preemergence
Method in brief: as §1

[23] = 125 g ai/ha, postemergence, 0 to 100 scale, 0 no effect, 100 complete control
[24] = Postemergence, 500 g ai/ha, visual 0 to 100 scale (0 no effect, 100 complete control)
[25] = Preemergence, 500 g ai/ha, visual rating after 10 days

Cc1cccc2c1OC(C)CN2C(=O)c1cccc(-n2ncnc2C2CC2)c1 (racemic) [Compound 196]
Plant response rating, Blackgrass (blackgrass [1]): 0 | Blackgrass plant response rating (blackgrass [1]): 0 | Plant response rating, Blackgrass (blackgrass [2]; [23]): 0 | Plant response rating, Blackgrass (blackgrass [2]; [24]): 0 | Plant response rating, Wheat (wheat [3]; [23]): 0 | Plant response rating, Wheat (wheat [3]; [24]): 0 | Plant response rating, Galium (galium; [23]): 0 | Plant response rating, Galium (galium; [24]): 0 | Plant response rating, Wheat (wheat [4]; [25]): 0 | Wheat plant response rating (wheat [4]; Test C, 125 g ai/ha): 0 | Plant response rating, Corn (corn [5]; [23]): 0 | Plant response rating, Corn (corn [5]; [24]): 0 | Plant response rating, Foxtail, Giant (foxtail, giant [6]; [23]): 0 | Plant response rating, Foxtail, Giant (foxtail, giant [6]; [24]): 0 | Plant response rating, Kochia (kochia [7]; [25]): 0 | Kochia plant response rating (kochia [7]; Test C, 125 g ai/ha): 0 | Plant response rating, Ryegrass, Italian (ryegrass, Italian [8]; [23]): 0 | Plant response rating, Ryegrass, Italian (ryegrass, Italian [8]; [24]): 0 | Plant response rating, Ducksalad (Flood) (ducksalad): 0 | Plant response rating, Rice (Flood) (rice): 0 | Plant response rating, Oat, Wild (oat, wild [9]; [25]): 0 | Oat, Wild plant response rating (oat, wild [9]; Test C, 125 g ai/ha): 0 | Plant response rating, Foxtail, Giant (foxtail, giant [10]; [25]): 0 | Foxtail, Giant plant response rating (foxtail, giant [10]; Test C, 125 g ai/ha): 0 | Plant response rating, Corn (corn [11]; [25]): 20 | Corn plant response rating (corn [11]; Test C, 125 g ai/ha): 0 | Plant response rating, Sedge, Umbrella (Flood) (sedge, umbrella): 0 | Plant response rating, Kochia (kochia [12]; [23]): 0 | Plant response rating, Kochia (kochia [12]; [24]): 0 | Plant response rating, Goosegrass (goosegrass [13]; [23]): 0 | Plant response rating, Goosegrass (goosegrass [13]; [24]): 0 | Plant response rating, Pigweed, Palmer (pigweed, palmer [14]; [23]): 30 | Plant response rating, Pigweed, Palmer (pigweed, palmer [14]; [24]): 0 | Plant response rating, Horseweed (horseweed; [23]): 0 | Plant response rating, Horseweed (horseweed; [24]): 0 | Plant response rating, Ragweed (ragweed [15]; [25]): 0 | Ragweed plant response rating (ragweed [15]; Test C, 125 g ai/ha): 0 | Plant response rating, Ragweed (ragweed [16]; [23]): 0 | Plant response rating, Ragweed (ragweed [16]; [24]): 0 | Plant response rating, Barnyardgrass (Flood) (barnyardgrass): 0 | Plant response rating, Oat, Wild (oat, wild [17]; [23]): 0 | Plant response rating, Oat, Wild (oat, wild [17]; [24]): 0 | Plant response rating, Pigweed, Palmer (pigweed, palmer [18]; [25]): 0 | Pigweed, Palmer plant response rating (pigweed, palmer [18]; Test C, 125 g ai/ha): 0 | Plant response rating, Goosegrass (goosegrass [19]; [25]): 0 | Goosegrass plant response rating (goosegrass [19]; Test C, 125 g ai/ha): 0 | Plant response rating, Ryegrass, Italian (ryegrass, Italian [20]; [25]): 0 | Ryegrass, Italian plant response rating (ryegrass, Italian [20]; Test C, 125 g ai/ha): 0 | Plant response rating, Soybean (soybean [21]; [23]): 0 | Plant response rating, Soybean (soybean [21]; [24]): 0 | Plant response rating, Soybean (soybean [22]; [25]): 0 | Soybean plant response rating (soybean [22]; Test C, 125 g ai/ha): 0

Cc1cccc2c1O[C@@H](C)CN2C(=O)c1cccc(-n2nccn2)c1 [Compound 282]
Plant response rating, Blackgrass (blackgrass [1]): 0 | Blackgrass plant response rating (blackgrass [1]): 0 | Plant response rating, Blackgrass (blackgrass [2]; [23]): 0 | Plant response rating, Blackgrass (blackgrass [2]; [24]): 0 | Plant response rating, Wheat (wheat [3]; [23]): 0 | Plant response rating, Galium (galium; [23]): 0 | Plant response rating, Galium (galium; [24]): 0 | Wheat plant response rating (wheat [4]; 500 g ai/ha): 0 | Wheat plant response rating (wheat [4]; Test C, 125 g ai/ha): 0 | Plant response rating, Corn (corn [5]; [23]): 0 | Plant response rating, Corn (corn [5]; [24]): 0 | Plant response rating, Foxtail, Giant (foxtail, giant [6]; [23]): 0 | Plant response rating, Foxtail, Giant (foxtail, giant [6]; [24]): 0 | Kochia plant response rating (kochia [7]; 500 g ai/ha): 0 | Kochia plant response rating (kochia [7]; Test C, 125 g ai/ha): 0 | Plant response rating, Ryegrass, Italian (ryegrass, Italian [8]; [23]): 0 | Plant response rating, Ducksalad (Flood) (ducksalad): 0 | Plant response rating, Rice (Flood) (rice): 0 | Oat, Wild plant response rating (oat, wild [9]; 500 g ai/ha): 0 | Oat, Wild plant response rating (oat, wild [9]; Test C, 125 g ai/ha): 0 | Foxtail, Giant plant response rating (foxtail, giant [10]; 500 g ai/ha): 0 | Foxtail, Giant plant response rating (foxtail, giant [10]; Test C, 125 g ai/ha): 0 | Corn plant response rating (corn [11]; 500 g ai/ha): 0 | Corn plant response rating (corn [11]; Test C, 125 g ai/ha): 0 | Plant response rating, Sedge, Umbrella (Flood) (sedge, umbrella): 0 | Plant response rating, Kochia (kochia [12]; [23]): 0 | Plant response rating, Goosegrass (goosegrass [13]; [23]): 0 | Plant response rating, Goosegrass (goosegrass [13]; [24]): 0 | Plant response rating, Pigweed, Palmer (pigweed, palmer [14]; [23]): 0 | Plant response rating, Horseweed (horseweed; [23]): 0 | Plant response rating, Horseweed (horseweed; [24]): 0 | Ragweed plant response rating (ragweed [15]; 500 g ai/ha): 0 | Ragweed plant response rating (ragweed [15]; Test C, 125 g ai/ha): 0 | Plant response rating, Ragweed (ragweed [16]; [23]): 0 | Plant response rating, Barnyardgrass (Flood) (barnyardgrass): 0 | Plant response rating, Oat, Wild (oat, wild [17]; [23]): 0 | Pigweed, Palmer plant response rating (pigweed, palmer [18]; 500 g ai/ha): 0 | Pigweed, Palmer plant response rating (pigweed, palmer [18]; Test C, 125 g ai/ha): 0 | Goosegrass plant response rating (goosegrass [19]; 500 g ai/ha): 0 | Goosegrass plant response rating (goosegrass [19]; Test C, 125 g ai/ha): 0 | Ryegrass, Italian plant response rating (ryegrass, Italian [20]; 500 g ai/ha): 0 | Ryegrass, Italian plant response rating (ryegrass, Italian [20]; Test C, 125 g ai/ha): 0 | Plant response rating, Soybean (soybean [21]; [23]): 0 | Soybean plant response rating (soybean [22]; 500 g ai/ha): 0 | Soybean plant response rating (soybean [22]; Test C, 125 g ai/ha): 0
